Experiments:
[1] = Digestive tolerance of ingested high quantities of antioxidants; format: in vivo; settings: oral
[2] = Stability of gallic acid as additive in juice and food products; format: physicochemical; settings: acidity about pH 5 or lower
[3] = cited from earlier work
[4] = test system: skin conditions arising from acne and rosacea; test: Effect of oral antioxidant/lycopene compositions on skin conditions (acne, rosacea symptoms); format: in vivo, human; settings: oral administration, methods of treatment of the invention

SMILES | digestive system problems on ingestion of relatively high quantities [1] | effectiveness in improving skin conditions / suppressing skin ailments [4] | further results
O=C1O[C@H]([C@@H](O)CO)C(O)=C1O [ascorbic acid] | can result in digestive system problems | – | –
O=C(O)c1cc(O)c(O)c(O)c1 [gallic acid, trihydroxy benzoic acid] | can result in digestive system problems | – | stability of gallic acid in un-oxidized form in juice/food product [2]: stable
CC(C)=CCC/C(C)=C/C=C/C(C)=C/C=C/C(C)=C/C=C/C=C(C)/C=C/C=C(C)/C=C/C=C(\C)CCC=C(C)C [lycopene] | – | less effective | bioavailability of lycopene on heating and processing tomatoes into tomato paste ([3]; heating and processing into tomato paste): increases bioavailability; adsorption by humans of lycopene from dietary sources ([3]; humans, dietary sources): ≥ 2,5%; bioavailability of lycopene in presence of oil ([3]; presence of oil): increases bioavailability
COC(=O)c1cc(O)c(O)c(O)c1 [methyl gallate] | – | not effective | –
CCCOC(=O)c1cc(O)c(O)c(O)c1 [propyl gallate] | – | not effective | –
